The source of these data is patent publication US20100184664A1, “OPHTHALMIC COMPOSITIONS USEFUL FOR IMPROVING VISUAL ACUITY” (Allergan, Inc., priority 2008, published 2010).

One data set relates to ERK MAP Kinase. In words: Beadlyte Cell Signaling Assay, phospho:total ERK MAP Kinase. The following applies: Beadlyte method, FIG. 5. The data set is classed as cell-based, human. As for the experimental part: (§1) Human corneoscleral tissues, from donors aged 16-59 years were obtained from the Lions Eye Bank of Texas (Houston, Tex.). Corneal epithelial cells were grown from limbal explants. In brief, after carefully removing the central cornea, excess conjunctiva and iris and corneal endothelium, the limbal rim was cut into 12 equal pieces (about 2×2 mm size each). Two of these pieces were placed epithelial side up into each well of 6-well culture plates, and each explant was covered with a drop of fetal bovine serum (FBS) overnight. The explants were then cultured in SHEM medium, which was an 1:1 mixture of Dulbecco modified Eagle medium (DMEM) and Ham F-12 medium containing 5 ng/mL EGF, 5 μg/mL insulin, 5 μg/mL transferrin, 5 ng/mL sodium selenite, 0.5 μg/mL hydrocortisone, 30 ng/mL cholera toxin A, 0.5% DMSO, 50 μg/mL gentamicin, 1.25 μg/mL amphotericin B and 5% FBS, at 37° C. under 5% CO2 and 95% humidity. The medium was renewed every 2-3 days. Epithelial phenotype of these cultures was confirmed by characteristic morphology and immuno-fluorescent staining with cytokeratin antibodies (AE-1/AE-3).
(§2) A series of primary sub-confluent corneal epithelial cultures (grown for 12 to 14 days, about 4-5×10^5 cells/well) were washed three times with […] buffered saline (PBS) and switched to an Earle's Balanced Salt Solution (EBSS, 300 mOsmols/kg) for 24 hours before treatment. The corneal epithelial cells were cultured for 1 hour in an equal volume (2.0 mL/well) of EBSS media or 400 mOsmols/kg media by adding 53 mM NaCl or sucrose, with either L-carnitine inner salt, betaine hydrochloride, erythritol, or xylitol (all at a concentration of 2 mM) that were pre-added 60 minutes before adding NaCl or sucrose. Samples without these osmoprotectants were also prepared and tested.
(§3) The adherent cells were lysed in Beadlyte® Buffer B (included in the Beadlyte® Cell Signaling buffer kit, Upstate Biotechnology, Lake Placid, N.Y.) containing an EDTA-free protease inhibitor cocktail tablet (Roche Applied Science, Indianapolis, Ind.) for 15 minutes. The cell extracts were centrifuged at 12,000×g for 15 minutes at room temperature and the supernatants were stored at −80° C. until they were analyzed by Western blot analysis. The total protein concentrations of the cell extracts were determined using a Micro BCA protein assay kit (Pierce, Rockford, Ill.). […]
(§4) The beads were washed and mixed with biotinylated specific reporter antibodies for phospho-MAPK or total-MAPK, followed by streptavidin-phycoerythrin. The amount of total or phospho-MAPK was then quantified by the Luminex 100™ system (Luminex, Austin, Tex.). Fifty events per bead were read, and the data output obtained from the Bio-Plex Manager software were exported to Microsoft Excel® for further analysis. […]

In data set [1] the test system is phosphorylated c-jun N-terminal kinases (p-JNK1 and p-JNK2). As to the kind of experiment: Western blot analysis of phosphorylated JNK1 and JNK2 in primary corneal epithelial cultures under hyperosmolar media. The following applies: 2 mM; for JNK activation (levels of JNK1 and JNK2, Western blot intensity) compared to 400 mOsmols/kg media alone: pre-added 60 minutes, 1 hour, FIGS. 1 and 2; for levels of JNK1 and JNK2 in 300 mOsmols/kg cultures: FIG. 2. The data set is classed as cell-based, human. The method, then:
as §1, §2
The adherent cells were lysed in Beadlyte® Buffer B (included in the Beadlyte® Cell Signaling buffer kit, Upstate Biotechnology, Lake Placid, N.Y.) containing an EDTA-free protease inhibitor cocktail tablet (Roche Applied Science, Indianapolis, Ind.) for 15 minutes. The cell extracts were centrifuged at 12,000×g for 15 minutes at room temperature and the supernatants were stored at −80° C. until they were analyzed by Western blot analysis. The total protein concentrations of the cell extracts were determined using a Micro BCA protein assay kit (Pierce, Rockford, Ill.).
The intensity of each of JNK1 and JNK2 was tested for each of these compositions using Western blot analysis with specific antibodies to each phosphorylated species.
The Western blot analysis was conducted as follows. The protein samples (50 μg per lane) were mixed with 6×SDS reducing sample buffer and boiled for 5 minutes before loading. Proteins were separated by SDS polyacrylamide gel electrophoresis (4-15% Tris-HCl, gradient gels from Bio-Rad, Hercules, Calif.), and transferred electronically to polyvinylidine difluoride (PVDF) membranes (Millipore, Bedford, Mass.). The membranes were blocked with 5% non-fat milk in TTBS (50 mM Tris, pH 7.5, 0.9% NaCl, and 0.1% Tween-20) for 1 hour at room temperature (RT), and then incubated 2 hours at RT with a 1:1000 dilution of rabbit antibody against phospho-p38 MAPK (Cell Signaling, Beverly, Mass.), 1:100 dilution of rabbit antibody against phospho-JNK, or 1:500 dilution of monoclonal antibody against phospho-p44/42 ERK (Santa Cruz Biotechnology, Santa Cruz, Calif.).
After three washings with TTBS, the membranes were incubated for 1 hour at RT with horseradish peroxidase-conjugated secondary antibody goat anti-rabbit IgG (1:2000 dilution, Cell Signaling, Beverly, Mass.), or goat anti-mouse IgG (1:5000 dilution, Pierce, Rockford, Ill.). After washing the membranes four times, the signals were detected with an ECL advance chemiluminescence reagent (Amersham, Piscataway, N.J.) and the images were acquired by a Kodak image station 2000R (Eastman Kodak, New Haven, Conn.). […]
For orientation: A western blot detects proteins with antibodies after separation by electrophoresis.

For data set [2], the system named is corneal epithelial cells isolated from the rabbit eye. As to the kind of experiment: Trans-epithelial electrical resistance (TEER) of layered air-lift corneal epithelial cultures under hypertonic fluid. It counts as cell-based. The note with it: for TEER (as % of isotonic control) at 22 hours: 2 mM solute in hypertonic fluid (400 mOsmols/kg), 22 hours exposure, isotonic control 100%, hypertonic control 23.3; for osmoprotective benefit (TEER relative to the hypertonic control), in words: Example 1, 2 mM, 400 mOsmols/kg, 22 hours; for % TEER relative to the isotonic control, response to concentration: Example 4, different concentrations, TEER measured from 0 to 24 hours, FIG. 6. From the text: In this experiment, corneal epithelial cells were isolated from the rabbit eye and grown under conditions so that they differentiate into a layered “air-lift” culture that includes basal, wing, and squamous cells. As they grow and differentiate, these cultures developed tight junctions between cells that provide the basis for a trans-epithelial electrical resistance (TEER) across the cell layers between the apical and basal surfaces. The TEER value is a sensitive measure of cell growth, differentiation and health.
After 5 days in culture during which the layered structure forms, different culture wells were exposed to hypertonic fluid (400 mOsmols/kg) with or without addition of one of 6 candidate compatible solutes at a low concentration (2 mM). The TEER was then measured after 22 hours of exposure. The TEER value was expressed as a percentage of the TEER value obtained from a similar culture under isotonic (300 mOsmol/kg) conditions.
Example 1 is repeated except that different concentrations of each of the candidate materials are used, and the TEER is measured at various times from 0 to 24 hours.
As in Example 1, the TEER variable is represented as % TEER relative to the isotonic control. […]

The test system of the next data set is phospho-JNK / total JNK. In words: Beadlyte Cell Signaling Assay, phosphorylated:total JNK. The following applies: Beadlyte method, FIG. 3. The data set is classed as cell-based, human. As for the experimental part:
as §1, §2, §3, §4

Data set [3] is described as follows: Component compatibility with stabilized chlorine dioxide preservative. It counts as physicochemical. The following applies: composition including betaine and stabilized chlorine dioxide. The method, then:
A composition including betaine and stabilized chlorine dioxide, as a preservative, was tested for component compatibility. […] Thus, betaine is not useful with is certain preservatives, such as stabilized chlorine dioxide. However, betaine may advantageously be employed as a compatible solute in ophthalmic compositions which use other preservative systems, or which are free of preservatives, for example, in single or unit-dose applications.

For the next data set, the system named is p38 MAP Kinase. As to the kind of experiment: Beadlyte Cell Signaling Assay, phospho:total p38 MAP Kinase. The note with it: Beadlyte method, FIG. 4. It counts as cell-based, human. As for the experimental part: Human corneoscleral tissues, from donors aged 16-59 years were obtained from the Lions Eye Bank of Texas (Houston, Tex.). Corneal epithelial cells were grown from limbal explants. In brief, after carefully removing the central cornea, excess conjunctiva and iris and corneal endothelium, the limbal rim was cut into 12 equal pieces (about 2×2 mm size each). Two of these pieces were placed epithelial side up into each well of 6-well culture plates, and each explant was covered with a drop of fetal bovine serum (FBS) overnight. […]
as §3
The beads were washed and mixed with biotinylated specific reporter antibodies for phospho-MAPK or total-MAPK, followed by streptavidin-phycoerythrin. The amount of total or phospho-MAPK was then quantified by the Luminex 100™ system (Luminex, Austin, Tex.). […]

SMILES strings stand for the structures.

For `OC[C@@H](O)[C@H](O)[C@@H](O)CO` [Xylitol], the “amount of ERK relative to the hypertonic control” value with ERK MAP Kinase was “reduced”. The “JNK activation (levels of JNK1 and JNK2, Western blot intensity) compared to 400 mOsmols/kg media alone” value in data set [1] is given as “no effect”. Moreover, in data set [2], the “TEER (as % of isotonic control) at 22 hours” value is recorded as 94.1% and the “osmoprotective benefit (TEER relative to the hypertonic control), in words” value was “good results”. The “amount of phospho-total JNK relative to the hypertonic control” value with phospho-JNK / total JNK is given as “reduced”.

In the case of `OC[C@@H](O)[C@@H](O)CO` [Erythritol], the “amount of ERK relative to the hypertonic control” value in the data set on ERK MAP Kinase is “reduced”. The “JNK activation (levels of JNK1 and JNK2, Western blot intensity) compared to 400 mOsmols/kg media alone” value in data set [1] is on record as “no effect”. In data set [2], the “TEER (as % of isotonic control) at 22 hours” value is on record as 107.4%; the “osmoprotective benefit (TEER relative to the hypertonic control), in words” value is recorded as “best results among the polyols tested”; the “% TEER relative to the isotonic control, response to concentration” value (“% TEER relative to the isotonic control” below) is “dose-related response”. Moreover, the “amount of phospho-total JNK relative to the hypertonic control” value in the data set with phospho-JNK / total JNK is reported as “reduced”.

As for `O[C@H]1[C@H](O)[C@@H](O)[C@H](O)[C@@H](O)[C@H]1O` [Myo-Inositol], in data set [2], the “TEER (as % of isotonic control) at 22 hours” value worked out at 74.8% and the “osmoprotective benefit (TEER relative to the hypertonic control), in words” value was “good results”.

Turning to `C[N+](C)(C)C[C@H](O)CC(=O)[O-]` [Carnitine], the “amount of ERK relative to the hypertonic control” value in the data set with ERK MAP Kinase is “did not”. In addition, in data set [1], the “levels of JNK1 and JNK2 in 300 mOsmols/kg cultures” value is reported as “less robust effect”; the “JNK activation (levels of JNK1 and JNK2, Western blot intensity) compared to 400 mOsmols/kg media alone” value was “definite decrease”. Further, in data set [2], the “TEER (as % of isotonic control) at 22 hours” value turned out to be 118.9%; the “osmoprotective benefit (TEER relative to the hypertonic control), in words” value is given as “most benefit”; the “% TEER relative to the isotonic control” value was “dose-related response”. For the same compound, the “amount of phospho-total JNK relative to the hypertonic control” value in the data set with phospho-JNK / total JNK is “reduced”.

As to `C[N+](C)(C)CC(=O)O` [Betaine, betaine (trimethyl glycine)], in data set [3], the “component compatibility with stabilized chlorine dioxide (Purite7) preservative” value is “not fully compatible”. Besides, in the data set with ERK MAP Kinase, the “amount of ERK relative to the hypertonic control” value is reported as “did not”. In addition, in data set [1], the “levels of JNK1 and JNK2 in 300 mOsmols/kg cultures” value is reported as “less robust effect”; the “JNK activation (levels of JNK1 and JNK2, Western blot intensity) compared to 400 mOsmols/kg media alone” value is “definite decrease”. In addition, in data set [2], the “TEER (as % of isotonic control) at 22 hours” value is 53.3% and the “% TEER relative to the isotonic control” value is recorded as “dose-related response”. For the same compound, in the data set on phospho-JNK / total JNK, the “amount of phospho-total JNK relative to the hypertonic control” value was “reduced”. The “amount of phospho-total p38 relative to the hypertonic control” value with p38 MAP Kinase was “exception”.

As for `NCCS(=O)(=O)O` [Taurine], the “TEER (as % of isotonic control) at 22 hours” value in data set [2] is listed as 39.8%.
